Measured values as given in PMC3038857, “Using Nuclear Receptor Activity to Stratify Hepatocarcinogens” (PLoS ONE, 2011).
Read-outs that look alike come from different tables or passages of the source.

Experiments:
Mouse Liver [1] = conditions: ref ToxRefDB, cited from earlier work
Mouse Liver [2] = conditions: mouse chronic study, liver, neoplastic lesion; coded 6 / Inf, code not explained in the table; ref ToxRefDB; cited from earlier work
Mouse Liver [3] = conditions: mouse chronic study, liver, preneoplastic lesion; coded 6 / Inf, code not explained in the table; ref ToxRefDB; cited from earlier work
CYP1A1 = assay: CLZD_CYP1A1: Change in expression of CYP1A1 (primary human hepatocytes); type: cell-based; conditions: 24 hr
Method: (§1) This is a collection of multiplexed gene expression assays focused on Phase I and II xenobiotic metabolizing enzymes and transporters. Human primary cell cultures were treated with chemicals at 5 concentrations (0.004-40 [drawing 42] M) for 6, 24 and 48 hr. Concentration- and time-response profiles of chemicals were measured by the expression of key nuclear receptor target genes, activities of CYP1A enzymes (EROD), and cell morphology. Fourteen gene targets were monitored by quantitative nuclease protection assay including: six representative cytochrome P-450 genes, four hepatic transporters, three Phase II conjugating enzymes, and one endogenous metabolism gene involved in cholesterol synthesis. The target genes associated with nuclear receptor pathways are as follows: [drawing 43] and [drawing 44] with [drawing 45]; [drawing 46] , [drawing 47] , [drawing 48] , [drawing 49] , [drawing 50] and [drawing 51] with [drawing 52]; [drawing 53] , [drawing 54] , [drawing 55] and [drawing 56] with [drawing 57]; [drawing 58] with [drawing 59]; and [drawing 60] with [drawing 61] . Assays were run in primary human hepatocyte cultures by CellzDirect Invitrogen Inc. (Durham, NC), in collaboration with EPA.
(§2) Multiplexed Gene Expression in Human Primary Hepatocytes: This is a collection of multiplexed gene expression assays focused on Phase I and II metabolic enzymes and transporters. […] Fourteen gene targets were monitored by quantitative nuclease protection assay: six representative cytochrome P450 genes, four hepatic transporters, three Phase II conjugating enzymes, and one endogenous metabolism gene involved in cholesterol synthesis. Cells were exposed at 5 concentrations (0.004-40 µM) for 6, 24 or 48 hr. Gene targets are sentinels for five nuclear receptor signaling pathways: AhR, CAR, PXR, FXR, and PPARα. All gene are associated with nuclear receptor pathways: CYP1A1 and CYP1A2 with AHR; ABCB1, ABCG2, CYP2B6, CYP2C9, CYP2C19 and UGT1A1 with CAR; CYP3A4, GSTA2, SLCO1B1 and SULT2A1 with PXR; HMGCS2 with PPARA; and ABCB11 with FXR. […] Detailed description of the methods, data and analysis methods for this dataset will be presented in a separate publication.

Rat Liver [4] = conditions: ref ToxRefDB, cited from earlier work
Rat Liver [5] = conditions: ref ToxRefDB, cited from earlier work; remark: listed apart in the source
PXR (NR1I2) [6] = target: T1, PXR (NR1I2) (Homo sapiens, UniProt O75469); assay: ATG_PXR_TRANS: Factorial reporter gene assay (HepG2); type: cell-based; set-up: endogenous in cells; host or cells: HepG2
T1 sequence (O75469 1-434): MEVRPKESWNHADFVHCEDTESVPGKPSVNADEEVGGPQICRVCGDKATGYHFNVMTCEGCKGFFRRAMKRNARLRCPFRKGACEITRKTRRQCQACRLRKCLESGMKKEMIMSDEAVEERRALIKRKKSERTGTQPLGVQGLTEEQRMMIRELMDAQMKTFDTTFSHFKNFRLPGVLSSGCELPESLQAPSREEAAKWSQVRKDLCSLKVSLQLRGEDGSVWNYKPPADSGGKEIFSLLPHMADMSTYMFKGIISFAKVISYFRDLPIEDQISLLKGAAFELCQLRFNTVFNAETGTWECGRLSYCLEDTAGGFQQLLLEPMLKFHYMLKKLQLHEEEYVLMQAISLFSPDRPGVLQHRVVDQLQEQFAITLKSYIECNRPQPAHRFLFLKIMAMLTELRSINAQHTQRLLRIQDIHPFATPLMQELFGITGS
Method: (§3) A multiple reporter transcription unit (MRTU) library consisting of 48 transcription factor binding sites was transfected into the HepG2 human liver hepatoma cell line. In addition to the cis-acting reporter genes (CIS), a modification of the approach was used to generate a trans-system (TRANS) with a mammalian one-hybrid assay consisting of an additional 25 MRTU library reporting the activity of nuclear receptor super-family members. […] These assays were performed by Attagene Inc. (Morrisville NC) under contract to EPA.
(§4) In addition to the cis-acting reporter genes (CIS), a modification of the approach was used to generate a trans-system (TRANS) with a mammalian one-hybrid assay consisting of an additional 25 MRTU library reporting the activity of nuclear receptor super-family members. […] Chemicals were then tested in the CIS and TRANS assays at seven concentrations starting at the MTC and followed by three-fold serial dilutions. These assays were performed by Attagene Inc. (Morrisville NC) under contract to EPA. Detailed description of the methods, data and analysis methods for this dataset will be presented in a separate publication.

[7] = target: T2, PPARG (peroxisome proliferator-activated receptor gamma) (Homo sapiens, UniProt P37231); assay: ATG_PPARg_TRANS: Factorial reporter gene assay (HepG2); type: cell-based
T2 construct: expressed in transfected cells; host or cells: HepG2
T2 sequence (P37231 1-505): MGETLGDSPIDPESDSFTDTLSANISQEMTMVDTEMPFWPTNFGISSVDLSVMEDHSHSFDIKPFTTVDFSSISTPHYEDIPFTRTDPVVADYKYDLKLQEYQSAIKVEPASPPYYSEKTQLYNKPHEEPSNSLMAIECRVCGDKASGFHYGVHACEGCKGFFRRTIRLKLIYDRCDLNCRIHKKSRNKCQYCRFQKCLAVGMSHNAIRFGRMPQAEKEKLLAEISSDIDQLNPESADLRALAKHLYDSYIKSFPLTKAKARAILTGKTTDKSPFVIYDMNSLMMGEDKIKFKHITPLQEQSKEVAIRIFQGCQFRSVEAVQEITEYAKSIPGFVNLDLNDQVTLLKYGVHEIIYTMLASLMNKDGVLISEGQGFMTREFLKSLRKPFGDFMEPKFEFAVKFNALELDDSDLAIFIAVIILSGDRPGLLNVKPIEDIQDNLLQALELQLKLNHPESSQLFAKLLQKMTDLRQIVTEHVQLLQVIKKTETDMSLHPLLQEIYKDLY
Method: as §3, §4

PXR (NR1I2) [8] = target: T1, PXR (NR1I2); assay: NVS_NR_hPXR: Human PXR Fluormone PXR (SXR) green (cell-free HTS); type: binding
From the text: These are a collection of biochemical assays measuring binding constants and enzyme inhibition values. Chemicals were initially screened at a single concentration in duplicate wells at a concentration of 10 [drawing 63] M for cytochrome P-450 assays and 25 [drawing 64] M for all others. […] These assays were run by Caliper Life Sciences (Hanover, MD) under contract to EPA. Short assay descriptions are available at: http://www.caliperls.com/products/contract-research/in-vitro/.
Cell-free HTS Assays: A collection of biochemical assays measuring binding constants and enzyme inhibition values. […] These assays were run by Caliper Life Sciences (Hanover, MD) under contract to EPA. Short assay descriptions are available at http://www.caliperls.com/products/contract-research/in-vitro/. Values for all endpoints were imported into GeneData Screener (Basel, Switzerland) and normalised to solvent controls from the same plate as the tested compounds and expressed as percent of neutral control. Concentration-response curves were fit in GeneData Screener (Basel, Switzerland) Condeseo module using the Hill equation and AC50 values were determined. […] Detailed description of the methods, data and analysis methods for this dataset are described in a separate publication.

PXR (NR1I2) [9] = target: T1, PXR (NR1I2); assay: ATG_PXRE_CIS: Factorial reporter gene assay (HepG2); type: cell-based; set-up: endogenous in cells; host or cells: HepG2
Method: as §3, §4

CYP2B6 = assay: CLZD_CYP2B6: Change in expression of CYP2B6 (primary human hepatocytes); type: cell-based; conditions: 24 hr
Method: as §1, §2

Rat Liver [10] = conditions: ref ToxRefDB, cited from earlier work; remark: listed apart in the source
CYP3A4 = assay: CLZD_CYP3A4: Change in expression of CYP3A4 (primary human hepatocytes); type: cell-based; conditions: 24 hr
Method: as §1, §2

CYP1A2 = assay: CLZD_CYP1A2: Change in expression of CYP1A2 (primary human hepatocytes); type: cell-based; conditions: 24 hr
Method: as §1, §2

| SMILES | CLZD_CYP1A1_24 (CYP1A1) | NVS_NR_hPXR (PXR (NR1I2) [8]) | ATG_PXRE_CIS (PXR (NR1I2) [9]; HepG2) | CLZD_CYP2B6_24 (CYP2B6) | CLZD_CYP3A4_24 (CYP3A4) | CHR_Rat_Liver_3_NeoplasticLesion (Rat Liver [4]; chronic study, rat liver) | CHR_Rat_Liver_2_PreneoplasticLesion (Rat Liver [5]; chronic study, rat liver) | ATG_PXRE_CIS (PXR (NR1I2) [9]; HepG2 reporter) | CHR_Rat_Liver_1_AnyLesion (Rat Liver [10]; chronic study, rat liver) | other results |
| --- | --- | --- | --- | --- | --- | --- | --- | --- | --- | --- |
| Oc1ccccc1-c1ccccc1 [Dataset S3 row 5] |  |  |  |  |  |  |  |  |  | CHR_Mouse_Liver_1_AnyLesion (Mouse Liver [1]; mouse chronic study, liver, any lesion, coded 6 / Inf, code not explained in the table): 6; CHR_Mouse_Liver_3_NeoplasticLesion (Mouse Liver [2]): 6; CHR_Mouse_Liver_2_PreneoplasticLesion (Mouse Liver [3]): 6 |
| CCC(CC)Nc1c([N+](=O)[O-])cc(C)c(C)c1[N+](=O)[O-] [r238] | 5.24 | 5.143 | 4.959 | 4.988 |  |  |  |  |  | CHR_Rat_Liver_3_NeoplasticLesion (Rat Liver [4]; rat, chronic study): 0; CHR_Rat_Liver_2_PreneoplasticLesion (Rat Liver [5]; rat, chronic study): 6; ATG_PXR_TRANS (PXR (NR1I2) [6]; HepG2): 4.432; ATG_PPARg_TRANS ([7]; HepG2): 4.167; CHR_Rat_Liver_1_AnyLesion (Rat Liver [10]; rat, chronic study): 6 |
| COc1nc(NC(C)C)nc(NC(C)C)n1 [r255] | 5.078 |  | 4.553 | 4.907 | 5.515 |  |  |  |  | CHR_Rat_Liver_3_NeoplasticLesion (Rat Liver [4]; rat, chronic study): 0; CHR_Rat_Liver_2_PreneoplasticLesion (Rat Liver [5]; rat, chronic study): 0; CHR_Mouse_Liver_1_AnyLesion (Mouse Liver [1]; mouse, chronic study): 6; CHR_Rat_Liver_1_AnyLesion (Rat Liver [10]; rat, chronic study): 0 |
| CC(C)Nc1nc(Cl)nc(NC(C)C)n1 [r260] | 4.988 |  | 4.569 | 5.165 | 5.248 |  |  |  |  | CHR_Rat_Liver_3_NeoplasticLesion (Rat Liver [4]; rat, chronic study): 0; CHR_Rat_Liver_2_PreneoplasticLesion (Rat Liver [5]; rat, chronic study): 0; CLZD_CYP1A2_24 (CYP1A2): 5.254; CHR_Mouse_Liver_1_AnyLesion (Mouse Liver [1]; mouse, chronic study): 6; ATG_PXR_TRANS (PXR (NR1I2) [6]; HepG2): 4.469; ATG_PPARg_TRANS ([7]; HepG2): 4.481; CHR_Rat_Liver_1_AnyLesion (Rat Liver [10]; rat, chronic study): 0 |
| COc1nc(C)nc(NC(=O)NS(=O)(=O)c2ccccc2CCC(F)(F)F)n1 [r267] | 5.399 | 4.423 |  | 5.398 | 5.396 | 0 | 0 | 4.328 | 0 | CHR_Mouse_Liver_1_AnyLesion (Mouse Liver [1]; chronic study, mouse liver): 6 |
| COc1nc(C)nc(NC(=O)NS(=O)(=O)c2ccccc2CCC(F)(F)F)n1 [r268] |  | 4.469 |  |  |  | 0 | 0 | 4.509 | 0 | CHR_Mouse_Liver_1_AnyLesion (Mouse Liver [1]; chronic study, mouse liver): 6 |
| CCNc1nc(Cl)nc(NCC)n1 [r284] | 5.018 |  |  | 4.983 |  | 6 | 6 | 4.456 | 6 | CLZD_CYP1A2_24 (CYP1A2): 5.016; ATG_PPARg_TRANS ([7]; HepG2 reporter): 4.398 |
| Cc1nn(-c2cc(NS(C)(=O)=O)c(Cl)cc2Cl)c(=O)n1C(F)F [r287] |  |  |  | 5.329 | 5.471 | 0 | 0 | 4.409 | 0 | CHR_Mouse_Liver_1_AnyLesion (Mouse Liver [1]; chronic study, mouse liver): 6; ATG_PXR_TRANS (PXR (NR1I2) [6]; HepG2 reporter): 4.469; ATG_PPARg_TRANS ([7]; HepG2 reporter): 4.444 |
| N#CSCSC#N [row 206] |  | 5.324 | 5.699 | 5.076 |  |  |  |  |  |  |
| S=C([S-])NCCNC(=S)[S-].[Zn+2] [row 207] | 5.214 | 5.59 | 4.387 |  |  |  |  |  |  | CHR_Rat_Liver_3_NeoplasticLesion (Rat Liver [4]; chronic rat study, liver): 0; CHR_Rat_Liver_2_PreneoplasticLesion (Rat Liver [5]; chronic rat study, liver): 0; CLZD_CYP1A2_24 (CYP1A2): 5.296; ATG_PPARg_TRANS ([7]; HepG2): 4.409; CHR_Rat_Liver_1_AnyLesion (Rat Liver [10]; chronic rat study, liver): 0 |
| CCSC(=O)N1CCCCCC1 [row 214] |  |  | 4.602 |  |  |  |  |  |  | CHR_Rat_Liver_3_NeoplasticLesion (Rat Liver [4]; chronic rat study, liver): 0; CHR_Rat_Liver_2_PreneoplasticLesion (Rat Liver [5]; chronic rat study, liver): 0; ATG_PXR_TRANS (PXR (NR1I2) [6]; HepG2): 4.208; CHR_Rat_Liver_1_AnyLesion (Rat Liver [10]; chronic rat study, liver): 0 |
